We go through 13 compounds from US20240408088A1, “PYRAZOLE DERIVATIVE, AND PREPARATION METHOD THEREFOR AND USE THEREOF IN MEDICINE” (Abbisko Therapeutics Co., Ltd., priority 2021, published 2024).

In data set [1] the test system is HCT 116 MTAP knockout cells. Briefly: Human colon cancer HCT116 cell proliferation inhibition test (MTAP knockout cells, CellTiter-Glo, 6 days). The data set is classed as cell-based. On the procedure: (§1) • 1. HCT 116 MTAP knockout and MTAP wild-type cells were plated in 96-well flat bottom 5 plates, and cultured overnight with McCoy's 5A medium containing […]+1% penicillin-streptomycin at 37° C. and 5% CO2. • 2. On the next day, the compound was dissolved with DMSO, diluted with DMSO and medium successively and transferred to the cell plate. The final concentration of the compound was 10 μM, the compound was diluted 4 times, with 9 concentration gradients, and DMSO control was added. • 3. Cells that have not been treated with the compound were removed. CellTiter-Glo Luminescent Cell Viability Assay (Promega) was used to detect cell viability, the operation was performed with reference to the package insert of the kit, and then the cell plate was placed on EnVision Multilabel Reader to detect the cold light signal. • 4. Meanwhile, the cell plate treated with the compound was cultured at 37° C. and 5% CO2 for 6 consecutive days. • 5. Then, CellTiter-Glo was also used to detect cell viability. • 6. Finally, the four-parameter dose-response curve module of GraphPad Prism v 9.2.0 software was used to plot the dose-response curve and calculate the IC50 for proliferation inhibition (unit: nM).

Data set [2] deals with HCT 116 MTAP wild-type cells. The data set can be described thus: Human colon cancer HCT116 cell proliferation inhibition test (MTAP wild-type cells, CellTiter-Glo, 6 days). The data set is classed as cell-based. The settings on record: HCT-116, 144 h. On the procedure:
as §1

Data set [3] can be described thus: Liver microsomal stability experiment. The note with it: pH 7.4; human liver microsomes, NADPH, 37° C., 0-45 min; read-out: Human Liver Microsome Stability Half-Life T1/2. It is filed as in vitro ADME. On the procedure:
Buffer solution A: 1.0 L of 0.1 M potassium dihydrogen phosphate buffer solution (containing 1.0 mM EDTA);
Buffer solution B: 1.0 L of 0.1 M dipotassium phosphate buffer solution (containing 1.0 mM EDTA);
Buffer solution C: Buffer solution A was added to 700 mL of buffer solution B. The addition was stopped when pH reached 7.4.
The selected compounds of the examples and reference standards were dissolved in DMSO to prepare a stock solution of 10 mM.
• 500 μM solution: 10 μL of 10 mM stock solution was added to 190 μL of ACN; • 1.5 μM dosing solution (dissolved in liver microsome solution, human liver microsomes were purchased from Xenotech): 18.75 μL of 20 mg/mL liver microsomes was added to 479.75 μL of buffer solution C, then 1.5 μL of 500 μM solution was added and mixed well with gentle shaking.
NADPH was weighted, then an appropriate amount of buffer solution C was added to prepare a 6 mM of NADPH solution.
• 1. 30 μL of 1.5 μM dosing solution was added to the wells set to different time points (0 min, 5 min, 15 min, 30 min and 45 min) on a 96-well plate. 2 replicates were made. • 2. Preparation of the 0-min sample: 135 μL of ACN (containing internal standard) was first added to the 0-min well, and 15 μL of 6 mM NADPH solution was added. • 3. A 96-well plate containing 1.5 μM of dosing solution and NADPH solution were pre-warmed in a 37° C. water bath for 5 minutes. • 4. Pre-warmed 15 μL of 6 mM NADPH solution was added to the wells set to 5 min, 15 min, 30 min and 45 min, the reaction was started and the timing was started. • 5. […] The solution was vortexed for 10 minutes, and the sample was centrifuged on a centrifuge at 5594×g for 15 minutes. • 6. 50 μL of supernatant was taken from the centrifuged sample, transferred to a 96-well sample plate that has been added with 50 μL of water, mixed, and finally sent to LC-MS/MS for analysis. The half-life was calculated based on the test results.
A general note: Liver microsomes are a subcellular fraction often used to study metabolism.

Data set [4] in a line: Pharmacokinetic assay in mice, single oral administration. It is filed as in vivo. The note with it: male, mouse, ICR mice, 10 mg/kg, plasma. The method, then:
The purpose of this trial is to study the pharmacokinetic behavior of some compounds of the present invention, and the administration method is: Single oral administration (PO) to ICR mice:
ICR mice male N=3 original source: Shanghai Sippr-Bk Lab Animal Co., Ltd.
The compounds were weighed and dissolved in 20% PG+10% Solutol HS15+70% pH 3 citrate buffer, respectively, shaken well and sonicated to prepare colorless clear solutions or suspensions. Nine mice were administered orally at a dose of 10 mg/kg after an overnight fast.
About 90 μL of blood was collected via the submandibular vein per time point, heparin sodium anticoagulant was added, the sample was placed on ice after collection, and plasma was centrifuged within 1 hour (centrifugation conditions: 8,000 rpm, 6 minutes, 2-8° C.). The blood collection time points were 0, 0.25, 0.5, 1, 2, 4, 6, 8 and 24 h. The samples were stored in a refrigerator at −20° C.
The plasma sample was 40 μL, 160 μL of ice-cold acetonitrile containing internal standard was added, vortexed for 3 minutes, and centrifuged at 11,000 rpm for 5 minutes. 100 μL of the supernatant was taken and added to 100 μL of water, 5 μL of the sample was taken and injected into LC/MS/MS for analysis (see the table below for the results).
PK Results for Single Oral Administration (PO) of 10 mg/kg of Compounds to Mice

Where two headings read alike, the source gives them in different places.

The IC50 is the concentration at which inhibition is half-maximal. A word on the AUC(0-t): it is exposure summed from dosing to a finite time, without extrapolation to infinity. Higher therefore signals more exposure. A word on the Cmax: it is the highest concentration seen after dosing.

`Cn1ncc(-c2cc(C#N)c3c(=O)[nH]nc(CN)c3c2)c1-c1c(F)cc2ccccc2c1C#N` [Example 1, 1-(aminomethyl)-7-(5-(1-cyano-3-fluoronaphthalen-2-yl)-1-methyl-1H-pyrazol-4-yl)-4-oxo-3,4-dihydrophthalazine-5-carbonitrile] yielded an IC50 in data set [1] of 29 nM. The IC50 in data set [2] came to 2360 nM. The half-life at 1 µM in data set [3] worked out at 3.37 h. In addition, in data set [4], the AUC(0-t) is 2530 ng·h/mL, the highest concentration (Cmax) amounted to 1750 ng/mL and the half-life was 1.2 h.

`C#Cc1cc(-c2cnn(C)c2-c2c(F)cc3ccccc3c2C#N)cc2c(CN)n[nH]c(=O)c12` [Example 2, 2-(4-(4-(aminomethyl)-8-ethynyl-1-oxo-1,2-dihydrophthalazin-6-yl)-1-methyl-1H-pyrazol-5-yl)-3-fluoro-1-naphthalenenitrile] came in with an IC50 in data set [1] (Homo sapiens, HCT-116, 144 h) of 9 nM. Also, the half-life at 1 µM in data set [3] was found to be 0.717 h. In data set [4], this compound gave an AUC(0-t) of 1440 ng·h/mL, a Cmax of 378 ng/mL and a half-life of 4 h.

For the compound `Cn1ncc(-c2cc(C#N)c3c(=O)[nH]nc(CN)c3c2)c1-c1c(F)c(Cl)cc(OC2CC2)c1C#N` [Example 6, 1-(aminomethyl)-7-(5-(3-chloro-6-cyano-5-cyclopropoxy-2-fluorophenyl)-1-methyl-1H-pyrazol-4-yl)-4-oxo-3,4-dihydrophthalazine-5-carbonitrile], in data set [1] (Homo sapiens, HCT-116, 144 h), half-maximal inhibition (IC50) was put at 70 nM. Moreover, in data set [3], the half-life at 1 µM was 2.05 h. Also, in data set [4], the AUC(0-t) was found to be 2900 ng·h/mL, the highest level (Cmax) was 973 ng/mL and the half-life was 5.1 h.

As to `Cn1ncc(-c2cc(C3CC3)c3c(=O)[nH]nc(CN)c3c2)c1-c1c(F)c(Cl)cc(OC2CC2)c1C#N` [Example 8, 2-(4-(4-(aminomethyl)-8-cyclopropyl-1-oxo-1,2-dihydrophthalazin-6-yl)-1-methyl-1H-pyrazol-5-yl)-4-chloro-6-cyclopropoxy-3-fluorobenzonitrile], half-maximal inhibition in data set [1] (Homo sapiens, HCT-116, 144 h) (IC50) required 18 nM. Also, the half-life at 1 µM in data set [3] was determined as 0.867 h. In data set [4], this compound had an AUC(0-t) of 2710 ng·h/mL, a peak concentration (Cmax) of 576 ng/mL and a half-life of 3.2 h.

The compound `Cn1ncc(-c2cc(C#N)c3c(=O)[nH]nc(CN)c3c2)c1-c1c(F)c(Cl)cc(N2CCCC2)c1C#N` [Example 9, 1-(aminomethyl)-7-(5-(3-chloro-6-cyano-2-fluoro-5-(pyrrolidin-1-yl)phenyl)-1-methyl-1H-pyrazol-4-yl)-4-oxo-3,4-dihydrophthalazine-5-carbonitrile] returned an IC50 in data set [1] (Homo sapiens, HCT-116, 144 h) of 58 nM. For the same compound, in data set [3], the half-life at 1 µM was 0.633 h. In data set [4], this compound showed an AUC(0-t) of 2230 ng·h/mL, a Cmax of 844 ng/mL and a half-life of 6.9 h.

Take `Cn1ncc(-c2ccc3c(=O)[nH]nc(CN)c3c2)c1-c1c(F)c(Cl)cc(N2CC(C)(F)C2)c1C#N` [Example 18, 2-(4-(4-(aminomethyl)-1-oxo-1,2-dihydrophthalazin-6-yl)-1-methyl-1H-pyrazol-5-yl)-4-chloro-3-fluoro-6-(3-fluoro-3-methylazetidin-1-yl)benzonitrile]: the IC50 is 123 nM in data set [1] (Homo sapiens, HCT-116, 144 h) and 5600 nM in data set [2].

As for `Cn1ncc(-c2ccc3c(=O)[nH]nc(CN)c3c2)c1-c1c(F)c(Cl)cc(N2CCC(F)(F)C2)c1C#N` [Example 19, 2-(4-(4-(aminomethyl)-1-oxo-1,2-dihydrophthalazin-6-yl)-1-methyl-1H-pyrazol-5-yl)-4-chloro-6-(3,3-difluoropyrrolidin-1-yl)-3-fluorobenzonitrile], the IC50 was determined as 80 nM in data set [1] (Homo sapiens, HCT-116, 144 h) and 3260 nM in data set [2].

Regarding `COC1CN(c2cc(OC3CC3)c(C#N)c(-c3c(-c4ccc5c(=O)[nH]nc(CN)c5c4)cnn3C)c2F)C1` [Example 23, 2-(4-(4-(aminomethyl)-1-oxo-1,2-dihydrophthalazin-6-yl)-1-methyl-1H-pyrazol-5-yl)-6-cyclopropoxy-3-fluoro-4-(3-methoxyazetidin-1-yl)benzonitrile], the IC50 worked out at 120 nM in data set [1] (Homo sapiens, HCT-116, 144 h) and 3660 nM in data set [2].

For the compound `COC1CCN(c2cc(OC3CC3)c(C#N)c(-c3c(-c4ccc5c(=O)[nH]nc(CN)c5c4)cnn3C)c2F)C1` (centres unmarked) [Example 26, 2-(4-(4-(aminomethyl)-1-oxo-1,2-dihydrophthalazin-6-yl)-1-methyl-1H-pyrazol-5-yl)-6-cyclopropoxy-3-fluoro-4-(3-methoxypyrrolidin-1-yl)benzonitrile], the half-maximal inhibitory concentration (IC50) was determined as 34 nM in data set [1] (Homo sapiens, HCT-116, 144 h) and 2490 nM in data set [2].

In turn, `Cn1ncc(-c2ccc3c(=O)[nH]nc(CN)c3c2)c1-c1c(F)c(Cl)cc(N2CCCC2)c1C#N` [Example 28, 2-(4-(4-(aminomethyl)-1-oxo-1,2-dihydrophthalazin-6-yl)-1-methyl-1H-pyrazol-5-yl)-4-chloro-3-fluoro-6-(pyrrolidin-1-yl)benzonitrile] had an IC50 in data set [1] (Homo sapiens, HCT-116, 144 h) of 17 nM. Besides, the 50% inhibitory concentration (IC50) in data set [2] is 761 nM. For the same compound, in data set [3], the half-life at 1 µM was found to be 0.45 h. In data set [4], the AUC(0-t) is 2980 ng·h/mL, the peak level (Cmax) was 810 ng/mL and the half-life was 5 h.

As to `Cn1ncc(-c2ccc3c(=O)[nH]nc(CN)c3c2)c1-c1c(F)c(Cl)cc(N2CC3(C2)CC3(F)F)c1C#N` [Example 29, 2-(4-(4-(aminomethyl)-1-oxo-1,2-dihydrophthalazin-6-yl)-1-methyl-1H-pyrazol-5-yl)-4-chloro-6-(1,1-difluoro-5-azaspiro[2.3]hexan-5-yl)-3-fluorobenzonitrile], the concentration for half-maximal inhibition (IC50) came to 20 nM in data set [1] (Homo sapiens, HCT-116, 144 h) and 1150 nM in data set [2].

For the compound `Cn1ncc(-c2ccc3c(=O)[nH]nc(CN)c3c2)c1-c1c(F)c(Cl)cc(N2CC(C(F)F)C2)c1C#N` [Example 30, 2-(4-(4-(aminomethyl)-1-oxo-1,2-dihydrophthalazin-6-yl)-1-methyl-1H-pyrazol-5-yl)-4-chloro-6-(3-(difluoromethyl)azetidin-1-yl)-3-fluorobenzonitrile], the IC50 in data set [1] (Homo sapiens, HCT-116, 144 h) was determined as 44 nM; in data set [2], 2660 nM.

`Cn1ncc(-c2ccc3c(=O)[nH]nc(CN)c3c2)c1-c1c(F)c(Cl)cc(OC2CC2)c1C#N` [MRTX-1979, reference compound] registered an IC50 in data set [1] (Homo sapiens, HCT-116, 144 h) of 53 nM. In addition, in data set [2], the concentration for half-maximal inhibition (IC50) is 1610 nM. Besides, in data set [3], the half-life at 1 µM was determined as 0.333 h. Besides, in data set [4], the AUC(0-t) turned out to be 973 ng·h/mL, the peak level (Cmax) was 266 ng/mL and the half-life is 1.3 h.
